Laboratory results taken from ChEMBL document CHEMBL3046614, “Overexpression of the sterol 14α-demethylase gene (MgCYP51) in Mycosphaerella graminicola isolates confers a novel azole fungicide sensitivity phenotype” (Pest Manag Sci, 2012).
Converted amounts (≈) assume the structure as drawn. The source made the active and inactive calls. No cut-off for these calls is given here.

What was measured:
[1] = system: Zymoseptoria tritici; assay: Fungicidal activity against Zymoseptoria tritici isolate TAG1-18 with 120 bp insertion expressing CYP51 variant with combination of L50S, S188N, I381V, deltaY459/G460 and N513K mutations assessed as fungal growth inhibition; type: functional, organism-based
[2] = system: Zymoseptoria tritici; assay: Fungicidal activity against Zymoseptoria tritici isolate V18 with 120 bp insertion expressing CYP51 variant with combination of L50S, S188N, I381V, deltaY459/G460 and N513K mutations assessed as fungal growth inhibition; type: functional, organism-based
[3] = system: Zymoseptoria tritici; assay: Fungicidal activity against Zymoseptoria tritici isolate TAG74-3 with 120 bp insertion expressing CYP51 variant with combination of L50S, S188N, I381V, deltaY459/G460 and N513K mutations assessed as fungal growth inhibition; type: functional, organism-based
[4] = system: Zymoseptoria tritici; assay: Fungicidal activity against Zymoseptoria tritici isolate IPO323 without 120 bp insertion expressing wild type CYP51 assessed as fungal growth inhibition; type: functional, organism-based
[5] = system: Zymoseptoria tritici; assay: Fungicidal activity against Zymoseptoria tritici isolate R03-29 without 120 bp insertion expressing CYP51 variant with combination of L50S, S188N, I381V, deltaY459/G460 and N513K mutations assessed as fungal growth inhibition; type: functional, organism-based
[6] = system: Zymoseptoria tritici; assay: Fungicidal activity against Zymoseptoria tritici isolate R10-13 without 120 bp insertion expressing CYP51 variant with combination of L50S, S188N, I381V, deltaY459/G460 and N513K mutations assessed as fungal growth inhibition; type: functional, organism-based
[7] = system: Zymoseptoria tritici; assay: Fungicidal activity against Zymoseptoria tritici isolate OP6 without 120 bp insertion expressing CYP51 variant with combination of L50S, S188N, I381V, deltaY459/G460 and N513K mutations assessed as fungal growth inhibition; type: functional, organism-based
[8] = system: Zymoseptoria tritici; assay: Fungicidal activity against Zymoseptoria tritici isolate R03-54 without 120 bp insertion expressing CYP51 variant with combination of L50S, S188N, I381V, deltaY459/G460 and N513K mutations assessed as fungal growth inhibition; type: functional, organism-based
[9] = system: Zymoseptoria tritici; assay: Fungicidal activity against Zymoseptoria tritici isolate OP7 with 120 bp insertion expressing CYP51 variant with combination of L50S, S188N, I381V, deltaY459/G460 and N513K mutations assessed as fungal growth inhibition; type: functional, organism-based
[10] = system: Zymoseptoria tritici; assay: (§1) Fungicidal activity against Zymoseptoria tritici isolate OP7 with 120 bp insertion expressing CYP51 variant with combination of L50S, S188N, I381V, deltaY459/G460 and N513K mutations inoculated on compound pre-treated wheat cultivar Riband seedlings assessed as pycnidia formation at doses > 1/16 recommended field rate measured 21 days post fungal inoculation; type: functional, organism-based
[11] = system: Zymoseptoria tritici; assay: as §1, with “TAG74-3” for “OP7”, “fungal DNA level” for “pycnidia formation”; type: functional, organism-based
[12] = system: Zymoseptoria tritici; assay: as §1, with “fungal DNA level” for “pycnidia formation”; type: functional, organism-based
[13] = system: Zymoseptoria tritici; assay: as §1, with “TAG74-3” for “OP7”, “28.13 ppm” for “doses > 1/16 recommended field rate”; type: functional, organism-based
[14] = system: Zymoseptoria tritici; assay: as §1, with “OP6 without” for “OP7 with”, “fungal DNA level” for “pycnidia formation”, “28.13 ppm” for “doses > 1/16 recommended field rate”; type: functional
[15] = system: Zymoseptoria tritici; assay: as §1, with “fungal DNA level” for “pycnidia formation”, “28.13 ppm” for “doses > 1/16 recommended field rate”; type: functional
[16] = system: Zymoseptoria tritici; assay: as §1, with “R10-13 without” for “OP7 with”, “fungal DNA level” for “pycnidia formation”, “28.13 ppm” for “doses > 1/16 recommended field rate”; type: functional
[17] = system: Zymoseptoria tritici; assay: as §1, with “28.13 ppm” for “doses > 1/16 recommended field rate”; type: functional, organism-based
[18] = system: Zymoseptoria tritici; assay: as §1, with “TAG74-3” for “OP7”, “fungal DNA level” for “pycnidia formation”, “28.13 ppm” for “doses > 1/16 recommended field rate”; type: functional
[19] = system: Zymoseptoria tritici; assay: as §1, with “TAG74-3” for “OP7”; type: functional, organism-based
[20] = system: Zymoseptoria tritici; assay: as §1, with “R10-13 without” for “OP7 with”, “fungal DNA level” for “pycnidia formation”, “39.06 ppm” for “doses > 1/16 recommended field rate”; type: functional
[21] = system: Zymoseptoria tritici; assay: as §1, with “TAG74-3” for “OP7”, “fungal DNA level” for “pycnidia formation”, “39.06 ppm” for “doses > 1/16 recommended field rate”; type: functional
[22] = system: Zymoseptoria tritici; assay: as §1, with “TAG74-3” for “OP7”, “39.06 ppm” for “doses > 1/16 recommended field rate”; type: functional, organism-based
[23] = system: Zymoseptoria tritici; assay: as §1, with “OP6 without” for “OP7 with”, “fungal DNA level” for “pycnidia formation”, “39.06 ppm” for “doses > 1/16 recommended field rate”; type: functional
[24] = system: Zymoseptoria tritici; assay: as §1, with “39.06 ppm” for “doses > 1/16 recommended field rate”; type: functional, organism-based
[25] = system: Zymoseptoria tritici; assay: as §1, with “fungal DNA level” for “pycnidia formation”, “39.06 ppm” for “doses > 1/16 recommended field rate”; type: functional

Compound | EC50 [1] [µg/mL] | EC50 [2] [µg/mL] | EC50 [3] [µg/mL] | EC50 [4] [µg/mL] | EC50 [5] [µg/mL] | EC50 [6] [µg/mL] | EC50 [7] [µg/mL] | EC50 [8] [µg/mL] | EC50 [9] [µg/mL] | also measured
OC(Cc1ccccc1Cl)(Cn1cncn1)C1(Cl)CC1 (stereo not drawn) [PROTHIOCONAZOLE-DESTHIO] | 0.12 | 0.126 | 0.221 | 0.00187 (≈ 0.00599 µM) | 0.0091 | 0.0111 | 0.0126 | 0.0055 | 0.135 | –
CCCN(CCOc1c(Cl)cc(Cl)cc1Cl)C(=O)n1ccnc1 [PROCHLORAZ] | 0.294 | 0.239 | 0.624 | 0.015 (≈ 0.0398 µM) | 0.077 | 0.049 | 0.019 | 0.025 | 0.229 | –
CN(C/C=C/C#CC(C)(C)C)Cc1cccc2ccccc12 [TERBINAFINE] | 0.053 | 0.053 | 0.061 | 0.047 (≈ 0.161 µM) | 0.063 | 0.082 | 0.048 | – | 0.045 | –
O=C(Nc1ccccc1-c1ccc(Cl)cc1)c1cccnc1Cl [BOSCALID] | 0.976 | – | 0.719 | 0.554 (≈ 1.61 µM) | 0.21 | – | 0.841 | 0.766 | 0.808 | –
CC(C)(C)C(O)(CCc1ccc(Cl)cc1)Cn1cncn1 (stereo not drawn) [TEBUCONAZOLE] | 7.81 | 15.4 | 20.7 | 0.041 (≈ 0.133 µM) | 2.7 | 2.34 | 1.24 | 1.5 | 8.22 | –
CC1(C)CCC(Cc2ccc(Cl)cc2)C1(O)Cn1cncn1 (stereo not drawn) [METCONAZOLE] | 0.602 | – | 1.39 | < 0.0002 | 0.032 | 0.097 | 0.051 | – | 0.821 | Activity [10]: Active; Activity [11]: Active; Activity [12]: Active; Activity [13]: inactive; Activity [14]: 65 pg; Activity [15]: 5674 pg; Activity [16]: 106 pg; Activity [17]: inactive; Activity [18]: 1600 pg; Activity [19]: Active
Fc1ccc([C@]2(Cn3cncn3)O[C@H]2c2ccccc2Cl)cc1 [EPOXICONAZOLE] | 0.911 | 0.759 | 1.41 | 0.0015 (≈ 0.00455 µM) | 0.067 | 0.091 | 0.085 | 0.092 | 0.819 | Activity [20]: 400 pg; Activity [10]: Active; Activity [11]: Active; Activity [21]: 9284 pg; Activity [12]: Active; Activity [22]: inactive; Activity [23]: 14 pg; Activity [24]: inactive; Activity [25]: 1600 pg; Activity [19]: Active
